Results from ChEMBL document CHEMBL6092159, “Design, synthesis, and biological evaluation of novel iNOS inhibitors as potent neuroprotective agents for ischemic stroke” (Eur J Med Chem, 2024).
≈ marks a conversion by molar mass, not a printed value. Calls of active or inactive are those of the source. The calls are words filed in the database; no cut-off is given here.

Columns and labels:
SH-SY5Y [1] = assay: Neuroprotective effect in human SH-SY5Y cells assessed as reduction in OGD/R-induced damage by measuring increase in cell viability at 10 uM incubated for 3 hrs followed by washout cells cultured in glucose and FBS-free medium measured after 24 hrs by CCK8 assay; type: functional, cell-based
[2] = target: Nitric oxide synthase, inducible (Homo sapiens, UniProt P35228); assay: Inhibition of iNOS (unknown origin) assessed as nitric oxide production at 1 uM by hemoglobin capture assay
SH-SY5Y [3] = assay: Neuroprotective effect in human SH-SY5Y cells assessed as reduction in OGD/R-induced damage by measuring increase in cell viability at 1 uM incubated for 3 hrs followed by washout cells cultured in glucose and FBS-free medium measured after 24 hrs by CCK8 assay; type: functional, cell-based
BV-2 = assay: Neuroprotective effect in mouse BV-2 cells assessed as reduction in OGD/R-induced damage by measuring increase in cell viability at 10 uM incubated for 3 hrs followed by washout cells cultured in glucose and FBS-free medium measured after 24 hrs by CCK8 assay; type: functional, cell-based
SH-SY5Y [4] = assay: Antioxidant activity in human SH-SY5Y cells assessed as reduction in OGD/R-induced LDH level at 1 uM incubated for 3 hrs followed by washout cells cultured in glucose and FBS-free medium measured after 24 hrs by colorimetric assay; type: functional, cell-based
Rattus norvegicus [5] = assay: Anti-cerebral ischemia activity in rat tMCAO (transient middle cerebral artery occlusion) model assessed as reduction in cerebral infarct area at 9.98 mg/kg, iv treated after 2 hrs ischemia followed by reperfusion measured after 24 hrs of post-reperfusion by single-dose experiment; type: functional, organism-based; conditions: time 26.0 hrs
SH-SY5Y [6] = assay: Antioxidant activity in human SH-SY5Y cells assessed as reduction in OGD/R-induced ROS level at 1 uM incubated for 3 hrs followed by washout cells cultured in glucose and FBS-free medium measured after 24 hrs by DCFH-DA probe based fluorescence microscopy assay; type: functional, cell-based
SH-SY5Y [7] = assay: […] effect in human SH-SY5Y cells assessed as reduction in OGD/R-induced caspase-3 activity using substrate GreenNuc Caspase-3 Substrate is a peptide DEVD coupled with a DNA green fluorescent dye at 1 uM incubated for 3 hrs followed by washout cells cultured in glucose and FBS-free medium measured after 24 hrs by […] assay; type: functional, cell-based
[8] = Solubility of the compound by HPLC based dissolution test; type: physicochemical
Rattus norvegicus [9] = assay: Anti-cerebral ischemia activity in rat tMCAO (transient middle cerebral artery occlusion) model assessed as reduction in cerebral infarct area at 5 mg/kg, iv treated after 2 hrs ischemia followed by reperfusion measured after 24 hrs of post-reperfusion by single-dose experiment; type: functional, organism-based; conditions: time 26.0 hrs
Rattus norvegicus [10] = assay: Anti-cerebral ischemia activity in rat tMCAO (transient middle cerebral artery occlusion) model assessed as reduction in cerebral infarct area in presence of 1400W at 5 mg/kg, iv treated after 2 hrs ischemia followed by reperfusion measured after 24 hrs of post-reperfusion by single-dose experiment; type: functional, organism-based; conditions: time 26.0 hrs
Rattus norvegicus [11] = assay: Anti-cerebral ischemia activity in rat tMCAO (transient middle cerebral artery occlusion) model assessed as reduction in cerebral infarct area at 5 mg/kg, iv treated after 2 hrs ischemia followed by reperfusion measured after 24 to 72 hrs of post-reperfusion by TTC staining based multiple-dose experiment; type: functional, organism-based; conditions: time 26-74 hrs
[12] = Tmax in Sprague-Dawley rat at 10 mg/kg, iv measured after 24 hrs by LC-MS/MS analysis; type: ADME, organism-based; conditions: in vivo
[13] = Apparent volume of distribution in Sprague-Dawley rat at 10 mg/kg, iv measured after 24 hrs by LC-MS/MS analysis; type: ADME, organism-based; conditions: in vivo, read-out: Vz
[14] = Clearance in Sprague-Dawley rat at 10 mg/kg, iv measured after 24 hrs by LC-MS/MS analysis; type: ADME, organism-based; conditions: in vivo
[15] = MRT (0 to t) in Sprague-Dawley rat at 10 mg/kg, iv measured after 24 hrs by LC-MS/MS analysis; type: ADME, organism-based; conditions: in vivo
[16] = MRT (0 to infinity) in Sprague-Dawley rat at 10 mg/kg, iv measured after 24 hrs by LC-MS/MS analysis; type: ADME, organism-based; conditions: in vivo
[17] = target: T1, Nitric oxide synthase 3 (Homo sapiens) (UniProt P29474); assay: Inhibition of eNOS (unknown origin) assessed as nitric oxide production 1 uM by hemoglobin capture assay
T1 sequence (whole entry): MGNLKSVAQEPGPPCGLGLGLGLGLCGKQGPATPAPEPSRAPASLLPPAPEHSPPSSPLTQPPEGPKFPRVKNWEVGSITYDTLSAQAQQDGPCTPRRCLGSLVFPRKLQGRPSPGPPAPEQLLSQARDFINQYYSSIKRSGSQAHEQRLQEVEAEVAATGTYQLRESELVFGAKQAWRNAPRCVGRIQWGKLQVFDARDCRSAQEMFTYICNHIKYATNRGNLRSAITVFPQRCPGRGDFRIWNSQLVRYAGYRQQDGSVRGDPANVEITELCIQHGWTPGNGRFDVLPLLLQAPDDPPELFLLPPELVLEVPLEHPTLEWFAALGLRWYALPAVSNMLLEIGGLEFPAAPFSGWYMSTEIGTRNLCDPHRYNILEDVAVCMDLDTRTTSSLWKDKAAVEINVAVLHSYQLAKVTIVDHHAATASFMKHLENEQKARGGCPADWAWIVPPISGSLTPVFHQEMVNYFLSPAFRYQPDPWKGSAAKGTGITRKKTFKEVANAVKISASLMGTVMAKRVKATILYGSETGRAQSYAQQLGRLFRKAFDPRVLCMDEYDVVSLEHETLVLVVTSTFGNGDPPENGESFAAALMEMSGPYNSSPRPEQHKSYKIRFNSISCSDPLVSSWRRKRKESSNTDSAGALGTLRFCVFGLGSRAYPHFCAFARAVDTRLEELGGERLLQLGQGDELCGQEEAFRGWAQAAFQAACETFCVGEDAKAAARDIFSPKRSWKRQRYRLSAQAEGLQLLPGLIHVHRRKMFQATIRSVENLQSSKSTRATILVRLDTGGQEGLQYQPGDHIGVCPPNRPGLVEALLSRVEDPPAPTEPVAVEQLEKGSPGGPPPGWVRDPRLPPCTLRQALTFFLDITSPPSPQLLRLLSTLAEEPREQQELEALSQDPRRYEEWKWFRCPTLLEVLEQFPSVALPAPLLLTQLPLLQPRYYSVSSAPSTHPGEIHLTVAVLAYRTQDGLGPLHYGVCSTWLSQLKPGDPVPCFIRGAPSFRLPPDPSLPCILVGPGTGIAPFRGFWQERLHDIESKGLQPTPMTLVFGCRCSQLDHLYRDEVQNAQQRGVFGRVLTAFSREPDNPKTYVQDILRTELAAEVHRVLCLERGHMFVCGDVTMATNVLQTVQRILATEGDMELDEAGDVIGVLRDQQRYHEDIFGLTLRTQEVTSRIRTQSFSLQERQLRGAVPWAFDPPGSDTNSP

[18] = Ratio of drug concentration male Sprague-Dawley rat brain to blood at 3.4 mg/kg, iv measured after 24 hrs by LC-MS/MS analysis; type: ADME, organism-based
Rattus norvegicus [19] = assay: Anti-cerebral ischemia activity in rat tMCAO (transient middle cerebral artery occlusion) model assessed as reduction in cerebral infarct area at 6.58 mg/kg, iv treated after 2 hrs ischemia followed by reperfusion measured after 24 hrs of post-reperfusion by single-dose experiment; type: functional, organism-based; conditions: time 26.0 hrs
Rattus norvegicus [20] = assay: Anti-cerebral ischemia activity in rat tMCAO (transient middle cerebral artery occlusion) model assessed as reduction in cerebral infarct area in presence of NBP at 6.58 mg/kg, iv treated after 2 hrs ischemia followed by reperfusion measured after 24 hrs of post-reperfusion by single-dose experiment; type: functional, organism-based; conditions: time 26.0 hrs
[21] = Half life in Sprague-Dawley rat at 10 mg/kg, iv measured after 24 hrs by LC-MS/MS analysis; type: ADME, organism-based; conditions: in vivo
[22] = target: Nitric oxide synthase 1 (Homo sapiens) (UniProt P29475); assay: Inhibition of nNOS (unknown origin) assessed as nitric oxide production 1 uM by hemoglobin capture assay
[23] = Stability in rat plasma assessed as half life; type: ADME, cell-free
[24] = Metabolic stability in rat liver microsomes assessed as half life; type: ADME, Microsome
[25] = Ratio of drug concentration male Sprague-Dawley rat brain to blood at 5 mg/kg, iv measured after 24 hrs by LC-MS/MS analysis; type: ADME, organism-based
Rattus norvegicus [26] = assay: Anti-cerebral ischemia activity in rat tMCAO (transient middle cerebral artery occlusion) model assessed as reduction in cerebral infarct area at 9.61 mg/kg, iv treated after 2 hrs ischemia followed by reperfusion measured after 24 hrs of post-reperfusion by single-dose experiment; type: functional, organism-based; conditions: time 26.0 hrs
Rattus norvegicus [27] = assay: Anti-cerebral ischemia activity in rat tMCAO (transient middle cerebral artery occlusion) model assessed as reduction in cerebral infarct area at 9.61 mg/kg, iv treated after 2 hrs ischemia followed by reperfusion measured after 24 to 72 hrs of post-reperfusion by TTC staining based multiple-dose experiment; type: functional, organism-based; conditions: time 26-74 hrs
Rattus norvegicus [28] = assay: Anti-cerebral ischemia activity in rat tMCAO (transient middle cerebral artery occlusion) model assessed as reduction in cerebral infarct area at 9.61 mg/kg, iv treated after 2 hrs ischemia followed by reperfusion measured after 24 hrs of post-reperfusion by measuring modified neurological severity score (mNSS) test based multiple-dose experiment relative to MCAO group; type: functional, organism-based
Rattus norvegicus [29] = assay: Anti-cerebral ischemia activity in rat tMCAO (transient middle cerebral artery occlusion) model assessed as reduction in cerebral infarct area at 9.61 mg/kg, iv treated after 2 hrs ischemia followed by reperfusion measured after 24 hrs of post-reperfusion by measuring turn left counts test based multiple-dose experiment relative to MCAO group; type: functional, organism-based
Rattus norvegicus [30] = assay: Anti-cerebral ischemia activity in rat tMCAO (transient middle cerebral artery occlusion) model assessed as reduction in cerebral infarct area at 9.61 mg/kg, iv treated after 2 hrs ischemia followed by reperfusion measured after 72 hrs of post-reperfusion by measuring modified neurological severity score (mNSS) test based multiple-dose experiment relative to MCAO group; type: functional, organism-based
Rattus norvegicus [31] = assay: Anti-cerebral ischemia activity in rat tMCAO (transient middle cerebral artery occlusion) model assessed as reduction in cerebral infarct area at 9.61 mg/kg, iv treated after 2 hrs ischemia followed by reperfusion measured after 72 hrs of post-reperfusion by measuring turn left counts test based multiple-dose experiment relative to MCAO group; type: functional, organism-based

Chain of Nitric oxide synthase, inducible (P35228 whole entry): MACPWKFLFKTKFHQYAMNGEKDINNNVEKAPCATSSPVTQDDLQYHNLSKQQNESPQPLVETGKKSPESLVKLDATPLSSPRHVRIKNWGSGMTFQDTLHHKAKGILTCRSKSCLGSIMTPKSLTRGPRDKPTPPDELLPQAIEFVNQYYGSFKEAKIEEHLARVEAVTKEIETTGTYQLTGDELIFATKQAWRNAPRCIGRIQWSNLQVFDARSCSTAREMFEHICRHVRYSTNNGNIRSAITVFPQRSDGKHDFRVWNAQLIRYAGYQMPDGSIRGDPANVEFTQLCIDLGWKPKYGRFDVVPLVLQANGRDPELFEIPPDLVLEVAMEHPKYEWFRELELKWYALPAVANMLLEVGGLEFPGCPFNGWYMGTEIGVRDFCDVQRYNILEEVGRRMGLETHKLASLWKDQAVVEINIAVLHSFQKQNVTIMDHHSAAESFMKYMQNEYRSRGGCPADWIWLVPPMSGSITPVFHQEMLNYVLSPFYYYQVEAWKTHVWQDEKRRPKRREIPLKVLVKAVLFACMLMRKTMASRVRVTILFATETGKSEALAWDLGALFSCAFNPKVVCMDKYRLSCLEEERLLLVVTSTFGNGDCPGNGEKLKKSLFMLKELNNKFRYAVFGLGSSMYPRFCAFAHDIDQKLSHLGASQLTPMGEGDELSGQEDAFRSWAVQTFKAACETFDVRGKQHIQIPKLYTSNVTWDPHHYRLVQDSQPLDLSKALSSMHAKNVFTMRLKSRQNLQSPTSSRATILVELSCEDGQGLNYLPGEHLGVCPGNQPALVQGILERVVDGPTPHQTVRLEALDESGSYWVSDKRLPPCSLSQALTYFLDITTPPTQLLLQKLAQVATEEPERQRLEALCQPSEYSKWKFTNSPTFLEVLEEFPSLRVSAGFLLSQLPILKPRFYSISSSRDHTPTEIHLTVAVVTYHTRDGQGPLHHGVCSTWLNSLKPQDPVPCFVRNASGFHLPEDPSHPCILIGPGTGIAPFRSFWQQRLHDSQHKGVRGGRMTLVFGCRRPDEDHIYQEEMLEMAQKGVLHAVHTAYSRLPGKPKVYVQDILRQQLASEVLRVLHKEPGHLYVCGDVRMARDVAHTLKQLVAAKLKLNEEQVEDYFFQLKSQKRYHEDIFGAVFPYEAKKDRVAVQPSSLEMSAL
Chain of Nitric oxide synthase 1 (Homo sapiens) (P29475 whole entry): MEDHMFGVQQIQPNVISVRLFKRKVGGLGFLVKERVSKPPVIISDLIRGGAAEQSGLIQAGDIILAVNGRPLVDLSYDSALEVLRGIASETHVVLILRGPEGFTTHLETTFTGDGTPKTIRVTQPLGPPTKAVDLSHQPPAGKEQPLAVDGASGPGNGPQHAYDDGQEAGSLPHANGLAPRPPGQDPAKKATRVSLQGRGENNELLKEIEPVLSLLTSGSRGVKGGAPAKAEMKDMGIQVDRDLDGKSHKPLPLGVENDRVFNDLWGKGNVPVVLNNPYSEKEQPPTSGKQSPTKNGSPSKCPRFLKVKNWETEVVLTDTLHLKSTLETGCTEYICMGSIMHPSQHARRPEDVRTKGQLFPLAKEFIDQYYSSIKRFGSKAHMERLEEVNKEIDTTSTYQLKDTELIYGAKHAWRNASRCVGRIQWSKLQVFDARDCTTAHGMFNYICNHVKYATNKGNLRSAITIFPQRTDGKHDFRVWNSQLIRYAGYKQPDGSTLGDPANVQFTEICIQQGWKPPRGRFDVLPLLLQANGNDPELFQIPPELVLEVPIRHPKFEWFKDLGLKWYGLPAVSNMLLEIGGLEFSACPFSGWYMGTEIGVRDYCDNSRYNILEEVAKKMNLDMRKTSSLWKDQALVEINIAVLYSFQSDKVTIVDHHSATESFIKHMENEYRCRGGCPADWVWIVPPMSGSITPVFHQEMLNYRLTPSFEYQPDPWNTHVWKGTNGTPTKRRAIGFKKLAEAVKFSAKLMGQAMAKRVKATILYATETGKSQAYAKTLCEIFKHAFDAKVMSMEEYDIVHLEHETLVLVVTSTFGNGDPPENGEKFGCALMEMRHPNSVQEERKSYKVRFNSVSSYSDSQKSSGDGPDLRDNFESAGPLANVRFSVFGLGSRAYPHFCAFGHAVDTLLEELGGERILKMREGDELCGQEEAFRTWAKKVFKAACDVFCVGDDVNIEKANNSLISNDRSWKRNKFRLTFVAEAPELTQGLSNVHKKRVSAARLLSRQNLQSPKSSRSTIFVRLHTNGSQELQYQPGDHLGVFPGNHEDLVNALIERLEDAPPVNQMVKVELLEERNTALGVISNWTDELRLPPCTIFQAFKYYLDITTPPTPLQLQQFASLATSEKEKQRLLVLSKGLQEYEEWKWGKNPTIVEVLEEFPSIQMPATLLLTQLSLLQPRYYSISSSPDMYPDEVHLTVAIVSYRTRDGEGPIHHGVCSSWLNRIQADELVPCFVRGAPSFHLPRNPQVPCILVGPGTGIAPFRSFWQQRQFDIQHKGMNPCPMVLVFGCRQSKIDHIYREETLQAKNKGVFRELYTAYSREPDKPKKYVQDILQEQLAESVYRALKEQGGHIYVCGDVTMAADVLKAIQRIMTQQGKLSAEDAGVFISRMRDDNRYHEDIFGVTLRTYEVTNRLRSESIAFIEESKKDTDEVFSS

CCCCC1OC(=O)c2cc(NCc3cccc(NC(C)=N)c3)ccc21 (centres undefined)
Activity (SH-SY5Y [1]): Active
IC50 [2]: 275 nM

CCCCC1OC(=O)c2cc(NC(=O)c3cccc(CNC(C)=N)c3)ccc21 (centres undefined)
Activity (SH-SY5Y [1]): Active
Activity (SH-SY5Y [3]): Active; Compound Demonstrating Comparable Protective Effects To Nbp And 1400W
Activity (BV-2): Active; Compound Exhibit Similar Protective Effects As Nbp And 1400W
Activity (SH-SY5Y [4]): Active
IC50 [2]: 245 nM
Activity (Rattus norvegicus [5]): Active

CCCCC1OC(=O)c2ccccc21 (racemic) [RAC-3-N-BUTYLPHTHALIDE]
Activity (SH-SY5Y [6]): Active
Activity (SH-SY5Y [4]): Active
Activity (SH-SY5Y [7]): Active
solubility [8]: 0.25 mg/mL (≈ 1.31 mM)
Activity (Rattus norvegicus [9]): Active
Activity (Rattus norvegicus [10]): Active
Activity (Rattus norvegicus [11]): Active

CC(=N)NCc1cccc(CN)c1 [1400W]
Tmax [12]: 4.98 min
Vd [13]: 21.7 L/kg
CL [14]: 90.12 mL/min/kg
MRT last at 24 h [15]: 0.96 h
MRT inf [16]: 1.11 h
Activity (SH-SY5Y [6]): Active
Activity (SH-SY5Y [4]): Active
Activity (SH-SY5Y [7]): Active
Activity [17]: inactive
BBR [18]: 10.96%
Activity (Rattus norvegicus [19]): Active
Activity (Rattus norvegicus [20]): Active

CCCCC1OC(=O)c2cc(NC(=O)c3cccc(NC(C)=N)c3)ccc21 (centres undefined)
Activity (SH-SY5Y [1]): Active
IC50 [2]: 474 nM

CCCCC1OC(=O)c2cc(NCc3cccc(CNC(C)=N)c3)ccc21 (centres undefined)
half-life [21]: 5.21 h
Tmax [12]: 4.98 min
Vd [13]: 32.4 L/kg
CL [14]: 71.33 mL/min/kg
MRT last at 24 h [15]: 1.62 h
MRT inf [16]: 1.91 h
Activity (SH-SY5Y [1]): Active
Activity (SH-SY5Y [3]): Active; Compound Demonstrating Comparable Protective Effects To Nbp And 1400W
Activity (BV-2): Active; Compound Exhibit Similar Protective Effects As Nbp And 1400W
Activity (SH-SY5Y [6]): Active
Activity (SH-SY5Y [4]): Active
Activity (SH-SY5Y [7]): Active
IC50 [2]: 171 nM
Activity [17]: inactive
inhibition [22]: 3.64%
half-life [23]: 23 h
half-life [24]: 2 h
solubility [8]: 30 mg/mL (≈ 82.1 mM)
BBR [25]: 27.36%
Activity (Rattus norvegicus [26]): Active
Activity (Rattus norvegicus [27]): Active; Efficacy Of Compound Superior Than Nbp Group
Activity (Rattus norvegicus [28]): Active
Activity (Rattus norvegicus [29]): Active
Activity (Rattus norvegicus [30]): Active
Activity (Rattus norvegicus [31]): Active
